Experimental data as given in article PMC5803267, “A small molecule inhibitor of Rheb selectively targets mTORC1 signaling” (Nature Communications, 2018).

How the values were obtained:
[1] = target: T1, human Rheb protein (1–169) (Homo sapiens, UniProt Q15382); experiment: Isothermal calorimetry (ITC) of binding to Rheb
T1 construct: human Rheb protein (1–169) was purified from BL21 (DE3) Escherichia coli; His-Smt (His-SUMO) (N, cleaved yes); made in house; host or cells: BL21 (DE3) Escherichia coli
Procedure: For the STD-NMR fragment-based screen, HMQC-NMR, ITC, and crystallography, human Rheb protein (1–169) was purified from BL21 (DE3) Escherichia coli using a His-Smt-Rheb expression vector. The cell paste was lysed in lysis buffer (50 mM HEPES pH 7.5, 0.5 M NaCl, 5% Glycerol, 1% CHAPS, EDTA-free protease inhibitor tablets, lysozyme to 1 mg mL^−1, benzonase 250 U), sonicated, and purified on a HiTrap Ni Chelating Column (GE Healthcare) using the following buffer: 50 mM HEPES pH 7.5, 0.5 M NaCl, 5% Glycerol, and imidazole increasing in concentration from 5 mM to 500 mM. The His-Smt tag was cleaved using a Ulp1 enzyme and dialyzed into 50 mM HEPES pH 7.5, 0.5 M NaCl, 5% glycerol. The resultant protein was again purified on a Ni Chelating column to remove the Ulp1 enzyme and His-Smt tag and then purified by size exclusion chromatography on a Sephacryl S-100 26/60 column into the following final buffer: 20 mM NaPhos pH 7.0, 100 mM NaCl, 5 mM MgCl2, 2 mM TCEP. For HMQC NMR, ^15N-labeled Rheb was generated using the same protocol but grown in minimal medium supplemented with ^15N-labeled amino acids.
Supplementary Figure 8. Measurement of binding constant of NR1 with Rheb using isothermal
(1 picture or pasted object on this page, not shown here)

[2] = tested on: mTORC1 signaling in TRI102 cells; experiment: mTORC1 signaling Western blot in TRI102 cells; format: cell-based, human; settings: replete and serum-starved conditions, 90 min, dose-dependent
Procedure: MCF-7 cells were serum-starved for 16 h and treated with compound for 90 min before cell lysis and Western blot analysis. For insulin-stimulated cells, 100 nM insulin was added 30 min before cell lysis. For EGF-stimulated cells, 100 ng mL^−1 EGF was added 10 min before cell lysis. c Rap1 activity was detected in lysates loaded in vitro with either GDP or GTPγS and treated with NR1 at the indicated concentrations. This was followed by a subsequent pulldown of GST-RalGDS-RBD. Bound Rap1 was detected by Western blot. d Evaluation of NR1 in a LAM patient-derived cell line (TRI102) under replete and serum-starved conditions. For replete conditions, TRI102 cells were treated for 90 min with compound in DMEM + 10% FBS. For serum-starved conditions, TRI102 cells were serum-starved 16 h and then treated for 90 min with compound prior to cell lysis and Western blot analysis. e HEK293 cells co-transfected with the indicated mTOR constructs and HA-GST-S6K1 were starved of amino acids or treated with NR1. To assess mTORC1 activity, an HA IP was performed and Western blots probed for ^T389pS6K1. f Chronic treatment of PC3 cells with NR1 to evaluate the inhibition of mTORC1 (using ^T389pS6K1) versus mTORC2 (using ^S473pAKT). PC3 cells were treated with compound under replete conditions for 24 h prior to cell lysis and Western blot analysis. […]

[3] = tested on: T389pS6K1 (mTORC1) in PC3 cells; experiment: Chronic treatment of PC3 cells, T389pS6K1 Western blot; format: cell-based, human
Procedure: MCF-7 cells were serum-starved for 16 h and treated with compound for 90 min before cell lysis and Western blot analysis. For insulin-stimulated cells, 100 nM insulin was added 30 min before cell lysis. For EGF-stimulated cells, 100 ng mL^−1 EGF was added 10 min before cell lysis. c Rap1 activity was detected in lysates loaded in vitro with either GDP or GTPγS and treated with NR1 at the indicated concentrations. This was followed by a subsequent pulldown of GST-RalGDS-RBD. Bound Rap1 was detected by Western blot. d Evaluation of NR1 in a LAM patient-derived cell line (TRI102) under replete and serum-starved conditions. For replete conditions, TRI102 cells were treated for 90 min with compound in DMEM + 10% FBS. For serum-starved conditions, TRI102 cells were serum-starved 16 h and then treated for 90 min with compound prior to cell lysis and Western blot analysis. e HEK293 cells co-transfected with the indicated mTOR constructs and HA-GST-S6K1 were starved of amino acids or treated with NR1. To assess mTORC1 activity, an HA IP was performed and Western blots probed for ^T389pS6K1. f Chronic treatment of PC3 cells with NR1 to evaluate the inhibition of mTORC1 (using ^T389pS6K1) versus mTORC2 (using ^S473pAKT). PC3 cells were treated with compound under replete conditions for 24 h prior to cell lysis and Western blot analysis.
Accordingly, a hallmark of a selective mTORC1 inhibitor such as NR1 would be the lack of mTORC2 inhibition irrespective of the duration of treatment. PC3 cells are sensitive to mTORC2 inhibition with long-term rapamycin treatment. Indeed, upon treatment with rapamycin for 24 h, both ^T389pS6K1 and ^S473pAKT were lowered, indicating inhibitory effects on both mTORC1 and mTORC2, respectively.
For Western-based signaling assays, cells were treated for either 90 min or 2–24 h as indicated before lysis, normalization, and Western analysis. Cells were lysed in Triton lysis buffer: 1% Triton X-100, 50 mM HEPES pH 7.4, 100 mM NaCl, 2 mM EDTA, 10 mM β-glycerophosphate, 10 mM Na-pyrophosphate, protease inhibitor.

MCF-7 cells = experiment: Protein synthesis assay (35S-methionine incorporation) in MCF-7 cells; format: cell-based, human; settings: MCF-7, 2.5 h compound, 35S-Met label 30 min
Procedure: Data are plotted as percent decrease in forward scatter. […] Error bars represent standard deviation of the mean of duplicates; graph represents data from one of two separate experiments
Another functional correlate dependent on mTORC1 activity is protein synthesis. […] The functional effects of NR1 on cell size and protein synthesis are consistent with the observed selective inhibition of mTORC1 pathway signaling.
The protein synthesis assay was performed by incubation of MCF7 cells with compounds in MEM + 10% dialyzed FBS for 2.5 h and then incubated in labeling mix (compounds, Met- and Cys-free media, 10% dialyzed FBS, and ^35S protein labeling mix) for 30 min. Cells were lysed, proteins were precipitated, and resuspended pellets were read on a Microbeta 2.

T1 sequence (Q15382 1-169): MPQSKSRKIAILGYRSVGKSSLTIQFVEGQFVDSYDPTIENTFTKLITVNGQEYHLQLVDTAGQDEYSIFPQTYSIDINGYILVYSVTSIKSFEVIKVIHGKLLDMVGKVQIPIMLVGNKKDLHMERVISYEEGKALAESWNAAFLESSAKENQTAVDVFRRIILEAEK

In the case of CN(C)C(=O)c1ccc(Cn2c(C(=O)O)cc3c(Br)cc(Sc4ccc(Cl)c(Cl)c4)cc32)cc1 [NR1, 4-bromo-6-(3,4-dichlorophenylthio)-1-(4-(dimethylcarbamoyl)benzyl)-1H-indole-2-carboxylic acid], the Kd [1] is reported as 1500 nM, the ΔH of binding [1] is reported as “–0.315 kcal mol^−1” and the “mTORC1 signaling in TRI102 cells” value [2] is reported as “inhibits mTORC1 signaling”. For the same compound, the “T389pS6K1 after 24 h treatment” value ([3]; PC3, replete, 24 h, NR1 30 µM, rapamycin 100 nM) was “potent inhibition”, the “pS6K1 over time course” value ([3]; PC3, time points 2 h through 24 h) was “inhibits pS6K1” and the protein synthesis (MCF-7 cells) was “dose-dependently reduce protein synthesis”.
